{"source": "patent US20240122847A1", "about": "“ORAL POLYPEPTIDE FORMULATIONS” (Bhami's Research Laboratory, Pvt. Ltd., priority 2022, published 2024)", "key": {"[1]": {"system": "serum calcium, serum phosphorous and alkaline phosphatase", "assay": "Pharmacodynamics of PTH in Yorkshire pigs", "assay_type": "in vivo", "set-up": "sCa / sP / sALP: unit not given here", "details": "for sALP / sCa / sP: Yorkshire pigs, Subcutaneous (40 μg)", "excerpt": "The serum calcium and serum phosphorous were estimated using Siemen's […] 744 Electrolyte Analyzer and for serum ALP Siemen's Dimension Expand Plus was used.\nThe pharmacodynamics data in subcutaneous and buccal/Sublingual groups are shown in Tables 21 and 22 and in FIGS. 63 and 64."}, "[2]": {"assay": "Pharmacokinetics of PTH (1-34) in minipigs, sugar truffle buccal/sublingual vs SC, plasma PTH (1-34) ELISA", "details": "for AUC(0-inf) / AUC 0-t / AUC(t-inf) extrapolated / MRT inf / AUMC 0-inf_obs / AUMC 0-inf_pred / AUMC 0-t / AUMC t-inf_obs / AUMC t-inf_pred / Clast_obs / Clast_pred / Lambda_z / Tlag / Tlast: minipigs; for Mean PTH (1-34) levels: pigs, GII - Buccal/sublingual 0.49 mg", "description": "Pharmacokinetic analysis was conducted in Female Minipigs weighing 12±1 kg for 2 days. Pigs in the oral treatment group was either fasted overnight or fed prior to the test sample administration. All the test animals in the treatment groups were administered with respective test formulation to the pre-designated animals. The animal was restrained and its head was held vertically, the jaws were pulled away, the tongue was gently lifted with a forceps followed by placement of a polypeptide formulation as described herein buccally/sublingually. After placing a polypeptide formulation as described herein, the snout was held together for about 1-2 mins to prevent the chewing of the polypeptide formulation. The time of dosage of each animal was noted. Blood samples were collected at aforementioned time points 0 min, 5 min, 30 min, 1 hour, 2 hours, 4 hours, 8 hours, and 24 hours into an EDTA-blood collection tubes for the separation of plasma to determine PTH (1-34) levels by ELISA. Plasma samples collected at different time points were analyzed by ELISA kit according to Creative Diagnostics protocol. This kit is based on sandwich enzyme-linked immuno-sorbent assay technology. An antibody, anti-PTH (1-34) was pre-coated onto a 96-well plate. Standards, test samples, and biotin-conjugated reagent were added to the wells and incubated. The HRP-conjugated reagent was then added, and the whole plate was incubated. Unbound conjugates were removed using wash buffer at each stage. TMB substrate was used to quantify the HRP enzymatic reaction. After TMB substrate was added, only wells that contain sufficient PTH (1-34) will produce a blue colored product, which then changes to yellow after adding the acidic stop solution. The intensity of the yellow color is proportional to the PTH (1-34) amount bound on the plate. The Optical Density (OD) was measured spectrophotometrically at 450 nm in a microplate reader, from which the concentration of PTH (1-34) can be calculated.\nPTH (1-34) was analyzed in plasma using a specific enzyme linked immunosorbent assay (ELISA). Pharmacokinetic endpoints were determined using noncompartmental methods using PK Solutions software. AUC was approximated using the trapezoidal rule on the observed concentrations. C max for each PTH (1-34) dose was derived as the maximum of all valid concentrations, and t max was then determined as the corresponding time point to C max. The terminal elimination rate constant (λz) was estimated by log-linear regression on the terminal part of the concentration-time curve, and t ½ was then calculated as t ½=ln 2/λz."}, "[3]": {"details": "female, Yorkshire, minipig, plasma, 0.49 mg"}, "[4]": {"details": "female, Yorkshire, minipig, plasma, sc, 0.04 mg"}}}
{"smiles": "CC[C@H](C)[C@H](NC(=O)[C@H](CCC(=O)O)NC(=O)[C@H](CO)NC(=O)[C@@H](NC(=O)[C@@H](N)CO)C(C)C)C(=O)N[C@@H](CCC(N)=O)C(=O)N[C@@H](CC(C)C)C(=O)N[C@@H](CCSC)C(=O)N[C@@H](Cc1cnc[nH]1)C(=O)N[C@@H](CC(N)=O)C(=O)N[C@@H](CC(C)C)C(=O)NCC(=O)N[C@@H](CCCCN)C(=O)N[C@@H](Cc1cnc[nH]1)C(=O)N[C@@H](CC(C)C)C(=O)N[C@@H](CC(N)=O)C(=O)N[C@@H](CO)C(=O)N[C@@H](CCSC)C(=O)N[C@@H](CCC(=O)O)C(=O)N[C@@H](CCCN=C(N)N)C(=O)N[C@H](C(=O)N[C@@H](CCC(=O)O)C(=O)N[C@@H](Cc1c[nH]c2ccccc12)C(=O)N[C@@H](CC(C)C)C(=O)N[C@@H](CCCN=C(N)N)C(=O)N[C@@H](CCCCN)C(=O)N[C@@H](CCCCN)C(=O)N[C@@H](CC(C)C)C(=O)N[C@@H](CCC(N)=O)C(=O)N[C@@H](CC(=O)O)C(=O)N[C@H](C(=O)N[C@@H](Cc1cnc[nH]1)C(=O)N[C@@H](CC(N)=O)C(=O)N[C@@H](Cc1ccccc1)C(=O)O)C(C)C)C(C)C", "note": "[PTH (1-34)]", "values": [{"measurement": "sALP", "setting": "[1]; 0.5 h", "result": "134.5 ± 17.67"}, {"measurement": "sCa", "setting": "[1]; 0.5 h", "result": "9.95 ± 0.49"}, {"measurement": "sP", "setting": "[1]; 0.5 h", "result": "9.8 ± 0.28"}, {"measurement": "sALP", "setting": "[1]; 1 h", "result": "158 ± 38.18"}, {"measurement": "sCa", "setting": "[1]; 1 h", "result": "10.4 ± 0.14"}, {"measurement": "sP", "setting": "[1]; 1 h", "result": "9 ± 0.84"}, {"measurement": "sALP", "setting": "[1]; 2 h", "result": "152.5 ± 36.06"}, {"measurement": "sCa", "setting": "[1]; 2 h", "result": "10.3 ± 0.14"}, {"measurement": "sP", "setting": "[1]; 2 h", "result": "10.25 ± 1.06"}, {"measurement": "sALP", "setting": "[1]; 4 h", "result": "141.5 ± 33.23"}, {"measurement": "sCa", "setting": "[1]; 4 h", "result": "9.9 ± 0.42"}, {"measurement": "sP", "setting": "[1]; 4 h", "result": "11 ± 0"}, {"measurement": "sALP", "setting": "[1]; 8 h", "result": "133.5 ± 23.33"}, {"measurement": "sCa", "setting": "[1]; 8 h", "result": "9.5 ± 0.28"}, {"measurement": "sP", "setting": "[1]; 8 h", "result": "11.4 ± 0.28"}, {"measurement": "sALP", "setting": "[1]; 24 h", "result": "114.5 ± 3.53"}, {"measurement": "sCa", "setting": "[1]; 24 h", "result": "9.4 ± 0.28"}, {"measurement": "sP", "setting": "[1]; 24 h", "result": "11.6 ± 0.28"}, {"measurement": "PD effect on serum calcium, serum phosphorous and serum alkaline phosphatase", "setting": "[1]; pigs, PTH given by buccal/sublingual route", "result": "clearly indicates the effect on serum calcium, serum phosphorous and serum alkaline phosphatase"}, {"measurement": "Cmax", "setting": "[2]; [3]", "result": 3290, "unit": "pg/mL"}, {"measurement": "MRT last", "setting": "[2]; [3]", "result": 1.35, "unit": "h"}, {"measurement": "Tmax", "setting": "[2]; [3]", "result": 0.08, "unit": "h"}, {"measurement": "half-life", "setting": "[2]; [3]", "result": 0.977, "unit": "h"}, {"measurement": "level at 5 min", "setting": "[2]; [3]", "result": 3290, "unit": "pg/mL"}, {"measurement": "level at 0.5 h", "setting": "[2]; [3]", "result": 3040, "unit": "pg/mL"}, {"measurement": "level at 1 h", "setting": "[2]; [3]", "result": 2610, "unit": "pg/mL"}, {"measurement": "level at 2 h", "setting": "[2]; [3]", "result": 1240, "unit": "pg/mL"}, {"measurement": "level at 4 h", "setting": "[2]; [3]", "result": 189, "unit": "pg/mL"}, {"measurement": "level at 8 h", "setting": "[2]; [3]", "result": 17.8, "unit": "pg/mL"}, {"measurement": "AUC(0-inf)", "setting": "[2]; female, Yorkshire, minipig, plasma, 0.49 mg, AUC 0-inf_obs, buccal/sublingual", "result": 6.67, "unit": "ng·h/mL"}, {"measurement": "AUC(0-inf)", "setting": "[2]; female, Yorkshire, minipig, plasma, 0.49 mg, AUC 0-inf_pred, buccal/sublingual", "result": 6.67, "unit": "ng·h/mL"}, {"measurement": "AUC 0-t", "setting": "[2]; female, Yorkshire, minipig, plasma, 0.49 mg, buccal/sublingual", "result": 6.64, "unit": "ng·h/mL"}, {"measurement": "AUC(t-inf) extrapolated", "setting": "[2]; female, Yorkshire, minipig, plasma, 0.49 mg, AUC t-inf_obs, buccal/sublingual", "result": 0.025, "unit": "ng·h/mL"}, {"measurement": "AUC(t-inf) extrapolated", "setting": "[2]; female, Yorkshire, minipig, plasma, 0.49 mg, AUC t-inf_pred, buccal/sublingual", "result": 0.022, "unit": "ng·h/mL"}, {"measurement": "MRT inf", "setting": "[2]; female, Yorkshire, minipig, plasma, 0.49 mg, MRT 0-inf_obs, buccal/sublingual", "result": 1.39, "unit": "h"}, {"measurement": "MRT inf", "setting": "[2]; female, Yorkshire, minipig, plasma, 0.49 mg, MRT 0-inf_pred, buccal/sublingual", "result": 1.38, "unit": "h"}, {"measurement": "bioavailability", "setting": "[2]; female, Yorkshire, minipig, plasma, other: buccal/sublingual, 0.49 mg", "result": 6, "unit": "%"}, {"measurement": "Cmax", "setting": "[2]; [4]", "result": 3280, "unit": "pg/mL"}, {"measurement": "MRT last", "setting": "[2]; [4]", "result": 2.02, "unit": "h"}, {"measurement": "Tmax", "setting": "[2]; [4]", "result": 0.5, "unit": "h"}, {"measurement": "half-life", "setting": "[2]; [4]", "result": 4.55, "unit": "h"}, {"measurement": "level at 0 h", "setting": "[2]; [4]", "result": 0.002, "unit": "pg/mL"}, {"measurement": "level at 5 min", "setting": "[2]; [4]", "result": 394, "unit": "pg/mL"}, {"measurement": "level at 0.5 h", "setting": "[2]; [4]", "result": 3280, "unit": "pg/mL"}, {"measurement": "level at 1 h", "setting": "[2]; [4]", "result": 3260, "unit": "pg/mL"}, {"measurement": "level at 2 h", "setting": "[2]; [4]", "result": 2990, "unit": "pg/mL"}, {"measurement": "level at 4 h", "setting": "[2]; [4]", "result": 164, "unit": "pg/mL"}, {"measurement": "level at 8 h", "setting": "[2]; [4]", "result": 50, "unit": "pg/mL"}, {"measurement": "level at 24 h", "setting": "[2]; [4]", "result": 6.43, "unit": "pg/mL"}, {"measurement": "AUC(0-inf)", "setting": "[2]; female, Yorkshire, minipig, plasma, sc, 0.04 mg, AUC 0-inf_obs", "result": 9.62, "unit": "ng·h/mL"}, {"measurement": "AUC(0-inf)", "setting": "[2]; female, Yorkshire, minipig, plasma, sc, 0.04 mg, AUC 0-inf_pred", "result": 9.62, "unit": "ng·h/mL"}, {"measurement": "AUC 0-t", "setting": "[2]; [4]", "result": 9.58, "unit": "ng·h/mL"}, {"measurement": "AUC(t-inf) extrapolated", "setting": "[2]; female, Yorkshire, minipig, plasma, sc, 0.04 mg, AUC t-inf_obs", "result": 0.0423, "unit": "ng·h/mL"}, {"measurement": "AUC(t-inf) extrapolated", "setting": "[2]; female, Yorkshire, minipig, plasma, sc, 0.04 mg, AUC t-inf_pred", "result": 0.0396, "unit": "ng·h/mL"}, {"measurement": "MRT inf", "setting": "[2]; female, Yorkshire, minipig, plasma, sc, 0.04 mg, MRT 0-inf_obs", "result": 2.15, "unit": "h"}, {"measurement": "MRT inf", "setting": "[2]; female, Yorkshire, minipig, plasma, sc, 0.04 mg, MRT 0-inf_pred", "result": 2.14, "unit": "h"}, {"measurement": "AUMC 0-inf_obs", "setting": "[2]; SC, 0.04 mg", "result": 20668.040, "unit": "pg/mL*h^2"}, {"measurement": "AUMC 0-inf_pred", "setting": "[2]; SC, 0.04 mg", "result": 20587.700, "unit": "pg/mL*h^2"}, {"measurement": "AUMC 0-t", "setting": "[2]; SC, 0.04 mg", "result": 19375.595, "unit": "pg/mL*h^2"}, {"measurement": "AUMC t-inf_obs", "setting": "[2]; SC, 0.04 mg", "result": 1292.445, "unit": "pg/mL*h^2"}, {"measurement": "AUMC t-inf_pred", "setting": "[2]; SC, 0.04 mg", "result": 1212.104, "unit": "pg/mL*h^2"}, {"measurement": "Clast_obs", "setting": "[2]; SC, 0.04 mg", "result": 6.435, "unit": "pg/mL"}, {"measurement": "Clast_pred", "setting": "[2]; SC, 0.04 mg", "result": 6.035, "unit": "pg/mL"}, {"measurement": "Lambda_z", "setting": "[2]; SC, 0.04 mg", "result": 0.152, "unit": "h⁻¹"}, {"measurement": "Tlag", "setting": "[2]; SC, 0.04 mg", "result": 0.000, "unit": "h"}, {"measurement": "Tlast", "setting": "[2]; SC, 0.04 mg", "result": 24.000, "unit": "h"}, {"measurement": "AUMC 0-inf_obs", "setting": "[2]; buccal/sublingual, 0.49 mg", "result": 9236.909, "unit": "pg/mL*h^2"}, {"measurement": "AUMC 0-inf_pred", "setting": "[2]; buccal/sublingual, 0.49 mg", "result": 9208.738, "unit": "pg/mL*h^2"}, {"measurement": "AUMC 0-t", "setting": "[2]; buccal/sublingual, 0.49 mg", "result": 9001.303, "unit": "pg/mL*h^2"}, {"measurement": "AUMC t-inf_obs", "setting": "[2]; buccal/sublingual, 0.49 mg", "result": 235.606, "unit": "pg/mL*h^2"}, {"measurement": "AUMC t-inf_pred", "setting": "[2]; buccal/sublingual, 0.49 mg", "result": 207.435, "unit": "pg/mL*h^2"}, {"measurement": "Clast_obs", "setting": "[2]; buccal/sublingual, 0.49 mg", "result": 17.765, "unit": "pg/mL"}, {"measurement": "Clast_pred", "setting": "[2]; buccal/sublingual, 0.49 mg", "result": 15.641, "unit": "pg/mL"}, {"measurement": "Lambda_z", "setting": "[2]; buccal/sublingual, 0.49 mg", "result": 0.709, "unit": "h⁻¹"}, {"measurement": "Tlag", "setting": "[2]; buccal/sublingual, 0.49 mg", "result": 0.000, "unit": "h"}, {"measurement": "Tlast", "setting": "[2]; buccal/sublingual, 0.49 mg", "result": 8.000, "unit": "h"}, {"measurement": "Mean PTH (1-34) levels", "setting": "[2]; 0 min", "result": 0.000, "unit": "pg/mL"}, {"measurement": "Mean PTH (1-34) levels", "setting": "[2]; 24 hour", "result": 0.000, "unit": "pg/mL"}]}
